# Where “and” joins values, the source holds several entries; their conditions need not be identical. Equal values may be shown once. Read-outs that look alike come from different tables or passages of the source.
# Experiments:
# [1] = test system: S. aureus ATCC 29213; test: MIC, broth microdilution; type: cell-based, Staphylococcus aureus
# Description: (§1) The modified broth microdilution method was used for in vitro evaluation of minimum inhibitory concentration. A small portion of bacterial colony cultivated overnight onto nutrient agar (Oxoid, Basingstoke, UK) with 5% bovine blood was suspended in sterile phosphate-buffered saline to get cell density 0.5 McFarland. This inoculum was diluted to reach the final concentration of bacterial cells 5 × 10^5 CFU/mL in the wells. […] For plates with staphylococci, cation adjusted Mueller–Hinton (CaMH) broth (Oxoid) was used; enterococci were cultivated in brain heart infusion (BHI, Oxoid). […] A drug-free control and a sterility control were included. Inoculated plates were incubated in aerobic atmosphere at 37 °C overnight. […] After evaluation of MICs, 10 µL of aliquots from the wells were put onto Mueller–Hinton agar. The agar plates were cultivated at 37 °C for 24 h. The minimum bactericidal concentration (MBC) was defined as the lowest concentration of the compound that killed 99.9% of the bacteria compared to the starting inoculum.
# [2] = test system: methicillin-resistant S. aureus SA 630; test: MIC, broth microdilution; type: cell-based, Staphylococcus aureus; settings: MRSA2 = SA 630; for MIC: read-out: MICs
# Description: as §1
# [3] = test system: methicillin-resistant S. aureus 63718; test: MIC, broth microdilution; type: cell-based, Staphylococcus aureus; settings: MRSA1 = S. aureus 63718; for MIC: read-out: MICs
# Description: as §1
# [4] = test system: methicillin-resistant S. aureus SA 3202; test: MIC, broth microdilution; type: cell-based, Staphylococcus aureus; settings: MRSA3 = SA 3202; for MIC: read-out: MICs
# Description: as §1
# [5] = test system: E. faecalis ATCC 29212; test: MIC, broth microdilution; type: cell-based, Enterococcus faecalis; settings: EF = E. faecalis ATCC 29213
# Description: as §1
# [6] = test system: vancomycin-resistant enterococci VRE 368; test: MIC, broth microdilution; type: cell-based, Enterococcus faecalis; settings: VRE2 = VRE 368; for MIC: read-out: MICs
# Description: as §1
# [7] = test system: vancomycin-resistant enterococci VRE 342B; test: MIC, broth microdilution; type: cell-based, Enterococcus faecalis; settings: VRE1 = VRE 342B; for MIC: read-out: MICs
# Description: as §1
# [8] = test system: vancomycin-resistant enterococci VRE 725B; test: MIC, broth microdilution; type: cell-based, Enterococcus faecalis; settings: VRE3 = VRE 725B; for MIC: read-out: MICs
# Description: as §1
# [9] = test system: S. aureus ATCC 29213 biofilm; test: biofilm inhibition assay (crystal violet); type: cell-based, Staphylococcus aureus; settings: ≥80% inhibition of biofilm formation; for MBIC80 (minimum biofilm inhibitory concentration): 48 h
# Description: (§2) The ability of compounds 1f, 1g, and 1h to inhibit biofilm growth and destroy the matured biofilm of S. aureus ATCC 29213 was investigated. The inhibitory activity was studied by the method with crystal violet. The activity to disrupt matured biofilm was evaluated as a decrease of metabolic activity using the MTT assay.
# The plates were inoculated by inoculum of S. aureus ATCC 29213 grown in TSB + 2% glucose to exponential phase. Before the inoculation of the plate, the original inoculum was diluted to 1 McFarland and then 1:100 in fresh TSB + 2% glucose, to reach the final concentrations in the wells of […]. […] The plates were incubated at 37 °C for 48 h. After incubation, the contents of the wells were removed, and the plates were washed three times by sterile PBS. After drying, 125 μL of 0.5% crystal violet was added to each well and the plates were stained at room temperature for 20 min. Then the dye was removed, and the plates were washed three times by sterile PBS. The colored biofilm was detached from the wells using 33% solution of acetic acid. The absorbance at 595 nm was measured. As a blank, a non-inoculated plate treated in the same way was used. […] The minimum biofilm inhibitory concentration was the lowest concentration of the compounds, which inhibited the growth of 80% bacteria compared to the growth control. The experiment was made in duplicate and repeated at least three times.
# [10] = test system: human monocytic leukemia THP-1 cells; test: in vitro antiproliferative assay (WST-1); type: cell-based; settings: THP-1 cells, WST-1, 24 h, read-out: Tox IC50
# Description: The preliminary in vitro screening of the antiproliferative effect of the investigated compounds was performed using a Water Soluble Tetrazolium salts-1 (WST-1) assay kit and a human monocytic leukemia THP-1 cell line by means of the method described recently. The principle of the WST-1 assay kit is the […] mitochondrial dehydrogenases by antiproliferative compounds. The activity of this enzyme directly correlates with the number of metabolically active cells in the culture. The antiproliferative effect was evaluated as the IC50 value (the concentration of the compound causing 50% inhibition of cell proliferation).
# Human monocytic leukemia THP-1 cells were used for in vitro antiproliferative assay. Cells were obtained from the European Collection of Cell Cultures (ECACC, Salisbury, UK) and routinely cultured in RPMI (Roswell Park Memorial Institute) 1640 medium supplemented with 10% fetal bovine serum, 2% L-glutamine, 1% penicillin, and streptomycin at 37 °C with 5% CO2. Cells were passaged at approximately one-week intervals. The antiproliferative activity of the compounds was determined using a Water Soluble Tetrazolium Salts-1 (WST-1, 2-(4-iodophenyl)-3-(4-nitrophenyl)-5-(2,4-disulfophenyl)-2H-tetrazolium) assay kit (Roche Diagnostics, Mannheim, Germany) according to the manufacturer’s instructions. The tested compounds were dissolved in DMSO and added in various compound concentrations to the cell suspension in the culture RPMI 1640 medium. The maximum concentration of DMSO in the assays never exceeded 0.1%. Subsequently, the cells were incubated at 37 °C with 5% CO2 for 24 h. For WST-1 assays, cells were seeded into 96-well plates (5 × 10^4 cells/well in 100 μL culture medium) in triplicate in serum-free RPMI 1640 medium, and measurements were taken 24 h after the treatment with the compounds. The median inhibition concentration values, IC50, were deduced through the production of a dose-response curve. All data were evaluated using GraphPad Prism 5.00 software (GraphPad Software, San Diego, CA, USA).
# [11] = test system: S. aureus ATCC 29213 biofilm; test: biofilm susceptibility / eradication of preformed biofilm (MTT); type: cell-based, Staphylococcus aureus; settings: for MBEC80 (minimum biofilm eradication concentration): 80% reduction of metabolic activity of preformed biofilm, 24 h
# Description: as §2
# Biofilms were grown as described above but without the presence of the compounds. After 48 h of incubation at 37 °C, the contents of the wells were removed, and the plates were washed three times by sterile PBS. After washing, 100 µL of tested compounds in CaMH were added to the wells. […] A growth control containing 2.5% of DMSO in CaMH was included. The plates were incubated at 37 °C for 24 h, then the solutions of compounds were removed, and the plates were gently washed three times by sterile PBS. Bacterial viability was analyzed using 100 µL of 0.05 mg/mL MTT (3-(4,5-dimethylthiazol-2-yl)- 2,5-diphenyltetrazolium bromide) in PBS in each well. The plates with MTT were incubated at 37 °C for 1–2 h in darkness, until the blue formazan crystals appeared. MTT solution was removed and the plates were washed once by PBS. Crystals of formazan were dissolved using 17% sodium dodecysulphate in 40% dimethylformamid. The absorbance at 570 nm was measured and the percentage of eradication was counted according to the equation (3) % of eradication = 100 − OD570S/OD570C × 100 where OD570S is the absorbance of the sample at 570 nm and OD570C is the absorbance of the growth control at 570 nm. The minimum biofilm eradication concentration was the lowest concentration of the compound, which reduced the metabolic activity of the biofilm by 80% compared to the growth control. The experiment was made in duplicate and repeated at least three times.
# [12] = test system: VRE 725B; test: synergy with antibiotics (FIC index, checkerboard); type: cell-based, Enterococcus faecalis; settings: Enterococcus
# Excerpt: (§3) Representatives from various classes were chosen in order to study the potential difference in synergistic activity according to the diverse mechanisms of action and resistance of these drugs. The method of minimal fractional inhibitory concentration (FIC) index (FICI) in a microtitration plate was used. FICI ≤ 0.5 means synergy; 0.5 < FICI < 1 means additivity; 1 ≤ FICI < 4 means indifference; and FICI ≥ 4 means antagonism.
# The used VRE strains were isolated from American crows by Oravcova et al., and their genetic profiles were characterized. All the VRE strains were carrying genes vanA, tetM, and ermB. Strains VRE 368 and VRE 725B carried gene aac, which provided acquired aminoglycoside resistance.
# (§4) For synergy effect study, a method of fractional inhibitory concentration was used. […] Raw H was used for the evaluation of MIC(A); column 12 was used for evaluation of MIC(B). The plate was inoculated by the bacterial suspension to reach final concentration of 5 × 10^5 CFU/mL in the wells. The fractional inhibitory concentration (FIC) index was calculated using the concentrations in the first nonturbid (clear) well found in each row and column along the turbidity/nonturbidity interface. To interpret the combined effect, the lowest FICI was used. A ΣFIC ≤ 0.5 means synergy; 0.5 < ΣFIC < 1 means additivity; 1 ≤ ΣFIC < 4 means indifference; and ΣFIC ≥ 4 means antagonism. The tests were made in duplicate, and the results were averaged.
# [13] = test system: VRE 368; test: synergy with antibiotics (FIC index, checkerboard); type: cell-based, Enterococcus faecalis; settings: Enterococcus, VRE, VRE 368; tested compound/antibiotic; read-out: MIC of each antibacterial drug alone observed in the synergy experiment
# Excerpt: as §3, §4
# [14] = test system: VRE 342B; test: synergy with antibiotics (FIC index, checkerboard); type: cell-based, Enterococcus faecalis; settings: VRE 342B
# Excerpt: as §3, §4
# [15] = Staphylococcus aureus, ATCC29213, SA = S. aureus ATCC 29213, read-out: MICs
# [16] = Staphylococcus aureus, ATCC29213, Table 7, planktonic cells of S. aureus ATCC 29213, read-out: MIC
# [17] = Enterococcus faecalis, ATCC 29212 / ATCC 29213
Compound,"MIC [1, 15]","MIC [1, 16] [µg/mL]",MIC ([2]; Staphylococcus aureus),MIC ([3]; Staphylococcus aureus),MIC ([4]; Staphylococcus aureus),"MIC [5, 17]",MIC ([6]; Enterococcus),MIC ([7]; Enterococcus),MIC ([8]; Enterococcus),MBIC80 (minimum biofilm inhibitory concentration) [9] [µg/mL],"IC50 ([10]; Homo sapiens, THP-1, 24 h) [nM]",MBEC80 (minimum biofilm eradication concentration) [11] [µg/mL],other results
"CCCCCCCCCCCCCCCC[N+](C)(C)Cc1ccccc1 [CTC, cetalkonium chloride, reference compound]",0.25 µg/mL and 0.63 µM,0.25,0.5 µg/mL and 1.26 µM,0.25 µg/mL and 0.63 µM,1 µg/mL and 2.53 µM,1 µg/mL and 2.53 µM,0.5 µg/mL and 1.26 µM,0.5 µg/mL and 1.26 µM,0.5 µg/mL and 1.26 µM,0.25,1290 ± 70,>256,activity on preformed biofilm [11]: did not show any activity on preformed biofilm
"CNC(C)C1CCC(N)C(OC2C(N)CC(N)C(OC3OCC(C)(O)C(NC)C3O)C2O)O1 (centres unmarked) [GEN, gentamicin, reference compound]",–,–,–,–,–,–,–,–,–,–,–,–,"MIC [12]: > 2000 µg/mL; MIC [13]: 64 µg/mL; MIC ([14]; Enterococcus, tested compound/antibiotic, read-out: MIC of each antibacterial drug alone observed in the synergy experiment): 32 µg/mL; concentrations of the tested compound/clinically used antibiotic providing additivity or synergy ([14]; in the combination of that line): 8 µg/mL"
"CCN(CC)CCOC(=O)c1ccc(N)cc1 [PRC, procaine, reference compound]",> 256 µg/mL and > 1080 µM,> 256,> 256 µg/mL and > 1080 µM,> 256 µg/mL and > 1080 µM,> 256 µg/mL and > 1080 µM,> 256 µg/mL and > 1080 µM,> 256 µg/mL and > 1080 µM,> 256 µg/mL and > 1080 µM,> 256 µg/mL and > 1080 µM,>256,> 300000,>256,–
"CCCCNc1ccc(C(=O)OCCN(C)C)cc1 [TEC, tetracaine, reference compound]",> 256 µg/mL and > 968 µM,> 256,> 256 µg/mL and > 968 µM,> 256 µg/mL and > 968 µM,> 256 µg/mL and > 968 µM,> 256 µg/mL and > 968 µM,> 256 µg/mL and > 968 µM,> 256 µg/mL and > 968 µM,> 256 µg/mL and > 968 µM,>256,224000 ± 6520,>256,–
"carbethopendecinium bromide [CRB, reference compound]",–,–,–,–,–,–,–,–,–,0.25,–,64,"MICs ([1]; SA = S. aureus ATCC 29213): 0.25 µg/mL; MIC ([1]; SA = S. aureus ATCC 29213, read-out: MICs): 0.59 µM; MIC ([1]; Table 7, planktonic cells of S. aureus ATCC 29213): 0.25 µg/mL; MICs [2]: 0.5 µg/mL; MIC [2]: 1.18 µM; MICs [3]: 0.25 µg/mL; MIC [3]: 0.59 µM; MICs [4]: 2 µg/mL; MIC [4]: 4.73 µM; MIC [5]: 1.18 µM; MICs [5]: 0.5 µg/mL; MICs [6]: 0.25 µg/mL; MIC [6]: 0.59 µM; MICs [7]: 0.5 µg/mL; MIC [7]: 1.18 µM; MICs [8]: 0.5 µg/mL; MIC [8]: 1.18 µM; minimum biofilm inhibitory concentration relative to MIC against planktonic cells [9]: comparable to its MIC; IC50 [10]: 1730 ± 80 nM"

# Source: publication PMC7168207, “Dibasic Derivatives of Phenylcarbamic Acid as Prospective Antibacterial Agents Interacting with Cytoplasmic Membrane” (Antibiotics, 2020)
